Records with an inconclusive call do not appear. The source made the active and inactive calls. How the calls were made is not given here.
Test system: rat and mouse 2-year carcinogenicity bioassay, tumor evidence
Experiment: Consolidated carcinogenicity assay summary data
Description: Cancer Evaluation Criteria
The National Toxicology Program describes the results of individual experiments on a chemical agent and notes the strength of the evidence for conclusions regarding each study. […] Other organizations, such as the International Agency for Research on Cancer, assign a strength of evidence for conclusions based on an examination of all available evidence, including animal studies such as those conducted by the NTP, epidemiologic studies, and estimates of exposure. Thus, the actual determination of risk to humans from chemicals found to be carcinogenic in laboratory animals requires a wider analysis that extends beyond the purview of these studies.
Five categories of evidence of carcinogenic activity are used in the Technical Report series to summarize the strength of evidence observed in each experiment: two categories for positive results (clear evidence and some evidence); one category for uncertain findings (equivocal evidence); one category for no observable effects (no evidence); and one category for experiments that cannot be evaluated because of major flaws (inadequate study). These categories of interpretative conclusions were first adopted in June 1983 and then revised on March 1986 for use in the Technical Report series to incorporate more specifically the concept of actual weight of evidence of carcinogenic activity. For each separate experiment (male rats, female rats, male mice, female mice), one of the following five categories is selected to describe the findings. These categories refer to the strength of the experimental evidence and not to potency or mechanism.
For studies showing multiple chemical-related neoplastic effects that if considered individually would be assigned to different levels of evidence categories, the following convention has been adopted to convey completely the study results. In a study with clear evidence of carcinogenic activity at some tissue sites, other responses that alone might be deemed some evidence are indicated as "were also related" to chemical exposure. In studies with clear or some evidence of carcinogenic activity, other responses that alone might be termed equivocal evidence are indicated as "may have been" related to chemical exposure.
When a conclusion statement for a particular experiment is selected, consideration must be given to key factors that would extend the actual boundary of an individual category of evidence. Such consideration should allow for incorporation of scientific experience and current understanding of long-term carcinogenesis studies in laboratory animals, especially for those evaluations that may be on the borderline between two adjacent levels. These considerations should include:
- adequacy of the experimental design and conduct;
- occurrence of common versus uncommon neoplasia;
- progression (or lack thereof) from benign to malignant neoplasia as well as from preneoplastic to neoplastic lesions;
- some benign neoplasms have the capacity to regress but others (of the same morphologic type) progress. At present, it is impossible to identify the difference. Therefore, where progression is known to be a possibility, the most prudent course is to assume that benign neoplasms of those types have the potential to become malignant;
- combining benign and malignant tumor incidences known or thought to represent stages of progression in the same organ or tissue;
- latency in tumor induction;
- multiplicity in site -specific neoplasia;
- supporting information from proliferative lesions (hyperplasia) in the same site of neoplasia or in other experiments (same lesion in another sex or species);
- presence or absence of dose relationships;
- statistical significance of the observed tumor increase;
- concurrent control tumor incidence as well as the historical control rate and variability for a specific neoplasm;
- survival-adjusted analyses and false positive or false negative concerns;
- structure-activity correlations; and
[…]

SMILES	carcinogen call (Route (rodents): Dosed feed)	further results
[P]#[In]	–	carcinogen call (Route (rodents): Inhalation): active; clear evidence
COC(=O)[C@H]1[C@H]2C[C@@H]3c4[nH]c5cc(OC)ccc5c4CCN3C[C@H]2C[C@@H](OC(=O)c2cc(OC)c(OC)c(OC)c2)[C@@H]1OC	active; clear evidence	–
ClC=C(Cl)Cl	–	carcinogen call (Route (rodents): Gavage): active; no evidence
O=P(OCCCl)(OCCCl)OCCCl	–	carcinogen call (Route (rodents): Gavage): active; clear evidence
O=[O+][O-]	–	carcinogen call (Route (rodents): Inhalation): active; no evidence
CCCCOCCO	–	carcinogen call (Route (rodents): Inhalation): active; no evidence
COP(=O)(OC)OC	–	carcinogen call (Route (rodents): Gavage): active; clear evidence
Brc1c(Br)c(Br)c(Oc2c(Br)c(Br)c(Br)c(Br)c2Br)c(Br)c1Br	active; some evidence	–
CCNC(=O)Nc1ncc([N+](=O)[O-])s1	active; no evidence	–
CNc1ccc(N(CCO)CCO)cc1[N+](=O)[O-]	active; equivocal evidence	–
COc1ccccc1N	active; clear evidence	–
c1ccc(N=Nc2ccccc2)cc1	active; clear evidence	–
O=[N+]([O-])c1ccc2c3c(cccc13)CC2	active; clear evidence	–
C[C@@H]1Cc2c(Cl)cc(C(=O)N[C@@H](Cc3ccccc3)C(=O)O)c(O)c2C(=O)O1	–	carcinogen call (Route (rodents): Gavage): active; clear evidence
O=Nc1ccc(Nc2ccccc2)cc1	active; clear evidence	–
Cc1cc(Cl)ccc1N	active; no evidence	–
O=C(O)C(F)(F)C(F)(F)C(F)(F)C(F)(F)C(F)(F)C(F)(F)C(F)(F)F	active; clear evidence	–
C=CC(=O)OCC(CC)(COC(=O)C=C)COC(=O)C=C	–	carcinogen call (Route (rodents): Topical): active; equivocal evidence
CC1=CC(C)(C)Nc2ccccc21	–	carcinogen call (Route (rodents): Topical): active; some evidence
O=C1NC(=O)C(c2ccccc2)(c2ccccc2)N1	active; equivocal evidence	–
C[C@]12CCC(=O)C=C1CC[C@@H]1[C@@H]2CC[C@]2(C)C(=O)CC[C@@H]12	–	carcinogen call (Route (rodents): Gavage): active; equivocal evidence
CCOc1ccc(NC(C)=O)cc1[N+](=O)[O-]	active; no evidence	–
CCCCC(CC)COP(=O)(OCC(CC)CCCC)OCC(CC)CCCC (configuration not stated)	–	carcinogen call (Route (rodents): Gavage): active; equivocal evidence
CCCCC1C(=O)N(c2ccccc2)N(c2ccccc2)C1=O	–	carcinogen call (Route (rodents): Gavage): active; equivocal evidence

SMILES	carcinogen call (Route (rodents): Dosed feed)	further results
CCCC[C@@H](C)[C@@H](OC(=O)C[C@@H](CC(=O)O)C(=O)O)[C@H](C[C@@H](C)C[C@H](O)CCCC[C@@H](O)C[C@H](O)[C@H](C)N)OC(=O)C[C@@H](CC(=O)O)C(=O)O	active; clear evidence	–
ClCc1cccnc1	–	carcinogen call (Route (rodents): Gavage): active; clear evidence
CNNCc1ccc(C(=O)NC(C)C)cc1	–	carcinogen call (Route (rodents): Interperitoneal): active; clear evidence
Nc1cc(Cl)c(N)c(Cl)c1	active; no evidence	–
O=P(OCC(Br)CBr)(OCC(Br)CBr)OCC(Br)CBr (configuration not stated)	active; clear evidence	–
[O-]/[N+](=N\O)c1ccccc1	active; clear evidence	–
BrCCBr	–	carcinogen call (Route (rodents): Inhalation, Second Route: Gavage): active; clear evidence
C=CC(=C)C	–	carcinogen call (Route (rodents): Inhalation): active; clear evidence
O=NN(c1ccccc1)c1ccccc1	active; clear evidence	–
N=C1C=CC(=C(c2ccc(N)cc2)c2ccc(N)cc2)C=C1	active; clear evidence	–
Cc1ccc(N=Nc2c(O)ccc3ccccc23)c([N+](=O)[O-])c1	active; some evidence	–
Nc1ccc(N=Nc2ccccc2)c(N)n1	active; clear evidence	–
NC(=O)C1CO1 (configuration not stated)	–	carcinogen call (Route (rodents): Dosed water): active; clear evidence
[Cl-].[Cl-].[Hg+2]	–	carcinogen call (Route (rodents): Gavage): active; some evidence
CC1C(=O)C[C@]2(C(C)C)C[C@H]12 (some centres not stated)	–	carcinogen call (Route (rodents): Gavage): active; some evidence
Cc1cc(C)c(N)cc1C	active; clear evidence	–
CCCCC(CC)COC(=O)c1ccccc1C(=O)OCC(CC)CCCC (configuration not stated)	active; clear evidence	–
O.O.O.O.O.O.O.O=S(=O)([O-])[O-].[Co+2]	–	carcinogen call (Route (rodents): Inhalation): active; some evidence
CC(CCl)OP(=O)(OC(C)CCl)OC(C)CCl (configuration not stated)	active; some evidence	–
Nc1cc([N+](=O)[O-])ccc1O	–	carcinogen call (Route (rodents): Gavage): active; some evidence
ClCCCl	–	carcinogen call (Route (rodents): Gavage): active; clear evidence
COc1ccccc1[N+](=O)[O-]	active; clear evidence	–
C1CCC2CCCCC2C1 (configuration not stated)	–	carcinogen call (Route (rodents): Inhalation): active; clear evidence

Reference: PubChem BioAssay AID2202555 (NIEHS Division of Translational Toxicology (DTT))
